Source: patent US20100130474A1 (WYETH, priority 2008, published 2010)
Structures can show the parent of a compound that is named as a salt.

Assays:
[1] = hygroscopicity / Dynamic Vapor Sorption (DVS) of hydrochloride salt crystal forms; type: physicochemical; conditions: for Hygroscopicity: hydrochloride salt of Example 4, result in words; for water uptake: at RH 50%; for water absorbed eventually: RH of 90%
Protocol: Differential scanning calorimetry data were collected for each solid form achieved using a DSC (TA instruments, model Q1000) under the following parameters: 50 mL/min purge gas (N2); scan range 40 to 200° C., scan rate 10° C./min. Thermogravimetric analysis data were collected using a TGA instruments (Mettler Toledo, model TGA/SDTA 851e) under the following parameters: 40 ml/min purge gas (N2); scan range 30 to 250° C., scan rate 10° C./min. X-ray data were acquired using an X-ray powder diffractometer (Bruker-axs, model D8 advance) having the following parameters: voltage 40 kV, current 40.0 mA, scan range (2) 5 to 30°, scan step size 0.01°, total scan time 33 minutes, VANTEC detector, and antiscattering slit 1 mm. FIGS. 1-7 show characterization data for hydrochloride salt forms.
Dynamic Vapor Sorption (DVS) was done at 26° C.

[2] = target: T1, rat-alpha 7-nAChR (Rattus norvegicus, UniProt Q05941); experiment: functional FLIPR assay, GH4C1 cells stably expressing alpha7 nAChR (intracellular calcium); type: cell-based; conditions: alpha7 nAChR stably expressed in GH4C1 cells; agonist concentration range 0.001 to 30 microM
T1 construct: expressed in transfected cells
T1 sequence (Q05941 23-502): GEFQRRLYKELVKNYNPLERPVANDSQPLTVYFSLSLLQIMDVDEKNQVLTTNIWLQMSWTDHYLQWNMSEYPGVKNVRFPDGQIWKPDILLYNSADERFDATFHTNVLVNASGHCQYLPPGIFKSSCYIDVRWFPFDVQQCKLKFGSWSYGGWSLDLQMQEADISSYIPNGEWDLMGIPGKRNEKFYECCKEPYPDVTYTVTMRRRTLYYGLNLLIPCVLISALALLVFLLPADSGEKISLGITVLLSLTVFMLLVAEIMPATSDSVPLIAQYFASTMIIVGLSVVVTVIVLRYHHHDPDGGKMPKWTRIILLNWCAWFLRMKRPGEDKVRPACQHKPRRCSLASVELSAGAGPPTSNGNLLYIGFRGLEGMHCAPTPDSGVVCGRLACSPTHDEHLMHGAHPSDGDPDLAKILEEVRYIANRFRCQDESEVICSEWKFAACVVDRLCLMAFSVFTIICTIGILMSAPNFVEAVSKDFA
Text: Rat GH4C1 cells were then transfected with the rat receptor, cloned and analyzed for functional alpha 7 nicotinic receptor expression employing a FLIPR assay to measure changes in intracellular calcium concentrations.
The FLIPR system allows the measurements of real time Ca^2+-concentration changes in living cells using a Ca^2+ sensitive fluorescence dye (such as Fluo4). This instrument enables the screening for agonists and antagonists for alpha 7 nAChR channels stably expressed in GH4C1 cells.
GH4C1 cells stably transfected with rat-alpha 7-nAChR (see above) were used. These cells are poorly adherent and therefore pretreatment of flasks and plates with poly-D-lysine was carried out. Cells are grown in 150 cm^2 T-flasks, filled with 30 ml of medium at 37° C. and 5% CO2.
EC50 and IC50 values were calculated using the IDBS XLfit4.1 software package employing a sigmoidal concentration-response (variable slope) equation:
The compounds were tested using the functional FLIPR primary screening assay employing the stable recombinant GH4C1 cell line expressing the alpha 7 nAChR. Hits identified were validated further by generation of concentration-response curves.

[3] = solubility in water of hydrochloride salt crystal forms; type: physicochemical; conditions: result in words

In the case of `COc1ccc(-c2cc(NC(=O)CCCCN3CCCN(C(C)=O)CC3)[nH]n2)cc1` (as salt: hydrochloric acid salt) [5-(4-Acetyl-[1,4]diazepan-1-yl)-pentanoic acid [5-(4-methoxy-phenyl)-2H-pyrazol-3-yl]-amide], the melting point is reported as 185 °C.

In the case of `COc1ccc(-c2cc(NC(=O)CCCCN3CCCN(C(C)=O)CC3)[nH]n2)cc1` (as salt: hydrochloride) [Example 4, 5-(4-Acetyl-[1,4]diazepan-1-yl)-pentanoic acid [5-(4-methoxy-phenyl)-2H-pyrazol-3-yl]-amide], the melting point is reported as 132 to 133 °C.

In the case of `COc1ccc(-c2cc(NC(=O)CCCCN3CCCN(C(C)=O)CC3)n[nH]2)cc1.Cl` [5-(4-acetyl-[1,4]diazepan-1-yl)-pentanoic acid [5-(4-methoxy-phenyl)-1H-pyrazol-3-yl]-amide hydrochloride], the Hygroscopicity [1] is reported as “extreme hygroscopicity”.

With `COc1ccc(-c2cc(NC(=O)CCCCN3CCCN(C(C)=O)CC3)[nH]n2)cc1` [Crystal Form III, 5-(4-Acetyl-[1,4]diazepan-1-yl)-pentanoic acid [5-(4-methoxy-phenyl)-2H-pyrazol-3-yl]-amide] the water uptake [1] was “(10% water” and the Hygroscopicity [1] was “Hygroscopic”.

With `COc1ccc(-c2cc(NC(=O)CCCCN3CCCN(C(C)=O)CC3)[nH]n2)cc1` [Crystal Form V, 5-(4-Acetyl-[1,4]diazepan-1-yl)-pentanoic acid [5-(4-methoxy-phenyl)-2H-pyrazol-3-yl]-amide] the water uptake [1] was “(7% at RH” and the Hygroscopicity [1] was “Hygroscopic”.

`C[N+]1(C)CCN(c2ccccc2)CC1` [DMPP] gave an EC50 [2] of 980 ± 470 nM.

For `COc1ccc(-c2cc(NC(=O)CCCCN3CCCN(C(C)=O)CC3)[nH]n2)cc1` [Form I, 5-(4-acetyl-1,4-diazepan-1-yl)-N-(5-(4-methoxyphenyl)-1H-pyrazol-3-yl)pentanamide], the “relative humidity at which the form picks up moisture” value ([1]; DVS at 26° C.) was “about 50%”, the water absorbed eventually ([1]; DVS at 26° C.) was “up to 2%” and the moisture gain ([1]; at 70-100% RH, lost without significant hysteresis on decreasing RH) was “at least 12%”. The moisture gain ([1]; equilibrated at RH less than or equal to 70%) was “about 0.5%”, the Hygroscopicity [1] was “relatively non-hygroscopic” and the solubility in water [3] was “considerably soluble”.

With `COc1ccc(-c2cc(NC(=O)CCCCN3CCCN(C(C)=O)CC3)[nH]n2)cc1` [Form II, 5-(4-acetyl-1,4-diazepan-1-yl)-N-(5-(4-methoxyphenyl)-1H-pyrazol-3-yl)pentanamide] the “relative humidity at which the form picks up moisture” value ([1]; DVS at 26° C.) was “about 20%”, the “water held at low RH” value ([1]; RH 0%, DVS at 26° C.) was 2% and the water absorbed eventually ([1]; DVS at 26° C.) was “up to 7%”. For the same compound, the Hygroscopicity [1] was “non-hygroscopic” and the solubility in water [3] was “considerably soluble”.
